# Test results reported in paper PMC5384220 (Nature Communications, 2017).
# Entries after “also recorded” stand apart in the source; their conditions may differ.
# Assays:
# FLAG-KDM4E = biological target: T1, FLAG-KDM4E (Homo sapiens, UniProt B2RXH2); assay: CETSA, FLAG-KDM4E in U2OS cells; assay type: cell-based; conditions: 0.5 µM
# T1 construct: expressed in transfected cells; host or cells: U2OS
# T1 sequence (B2RXH2 1-506): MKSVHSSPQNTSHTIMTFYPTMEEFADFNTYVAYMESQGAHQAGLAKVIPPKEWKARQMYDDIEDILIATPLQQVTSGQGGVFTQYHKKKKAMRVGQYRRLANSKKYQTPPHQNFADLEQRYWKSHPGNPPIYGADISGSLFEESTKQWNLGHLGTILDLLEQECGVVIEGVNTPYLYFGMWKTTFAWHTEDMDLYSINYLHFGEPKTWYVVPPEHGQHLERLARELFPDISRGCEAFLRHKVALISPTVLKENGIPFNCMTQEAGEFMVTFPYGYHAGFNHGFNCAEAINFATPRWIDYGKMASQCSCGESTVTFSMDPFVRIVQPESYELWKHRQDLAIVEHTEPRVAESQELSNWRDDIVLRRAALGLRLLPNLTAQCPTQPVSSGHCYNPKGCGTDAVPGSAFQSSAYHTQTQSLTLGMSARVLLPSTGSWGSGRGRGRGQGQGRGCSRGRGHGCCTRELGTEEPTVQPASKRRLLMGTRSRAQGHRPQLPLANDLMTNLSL
# Procedure: For CETSA melting curve experiments, 80% confluent U2OS cells in a 75 cm^2 flask were transfected with a plasmid encoding full-length Flag-tagged KDM4A1–1,064 (ref. [15]) or KDM4E1–506 (ref. [20]) using Lipofectamine 2000 (Thermo Scientific) and incubated for 4 h. The cells were washed with PBS buffer and media replaced with fresh DMEM with 10% FBS, supplemented with cyclic peptides in DMSO (0.1% DMSO final). Cell dosing was carried out for 20 h at 37 °C. Control cells were dosed only with DMSO. The cells were trypsinized and washed thrice with PBS, by centrifugation (300 g, 3 min, 4 °C). Cells were re-suspended in PBS supplemented with Complete Protease inhibitor cocktail (Sigma) and divided into 8–10 aliquots (100 μl) containing equal cell numbers in PCR tubes. For ITDRF CETSA experiments, approximately 6 × 10^6 cells were seeded evenly into nine 25 cm^2 flask and adhered before transfection. After 4 h of incubation, the cells were washed with PBS buffer and the media replaced with fresh DMEM with 10% FBS supplemented with cyclic peptides at a final concentration between 0 and 4,000 nM (0.1% DMSO final). Cells were trypsinized and washed thrice with PBS using centrifugation (300 g, 3 min, 4 °C). Cells were re-suspended in PBS supplemented with protease inhibitor cocktail (Sigma), aliquots (100 μl) containing equal cell numbers in PCR tubes were prepared. […] For ITDRF, tubes were incubated at approximately the Tm of the proteins of interest as determined by CETSA melting curve experiments, for example, 55 °C (Tm for actin) for 3 min, followed by room temperature for 3 min. […]
# The samples (supernatant) were run on SDS–PAGE (NuPage Novex Bis-Tris 4–12% polyacrylamide gels with NuPAGE MES SDS running buffer (Thermo Scientific)) and transferred onto nitrocellulose membranes using either the iBlot blotting system. FLAG-KDM4A levels were determined by immunoblotting using a monoclonal mouse anti-FLAG primary antibody (F1804, Sigma), at a dilution of 1: 1,000 in PBS-T buffer containing Seablock Reagent Salmon Plasma (2% v/v, Calbiochem). […]
# KDM4A = biological target: T2, KDM4A (Homo sapiens, UniProt O75164); assay: AlphaScreen demethylase activity assay, KDM4A; assay type: biochemical; conditions: ratio of IC50 values
# T2 construct: KDM4A 1-359 E.coli; Hexa-His (N); made in house; host or cells: E. coli
# T2 sequence (O75164 1-359): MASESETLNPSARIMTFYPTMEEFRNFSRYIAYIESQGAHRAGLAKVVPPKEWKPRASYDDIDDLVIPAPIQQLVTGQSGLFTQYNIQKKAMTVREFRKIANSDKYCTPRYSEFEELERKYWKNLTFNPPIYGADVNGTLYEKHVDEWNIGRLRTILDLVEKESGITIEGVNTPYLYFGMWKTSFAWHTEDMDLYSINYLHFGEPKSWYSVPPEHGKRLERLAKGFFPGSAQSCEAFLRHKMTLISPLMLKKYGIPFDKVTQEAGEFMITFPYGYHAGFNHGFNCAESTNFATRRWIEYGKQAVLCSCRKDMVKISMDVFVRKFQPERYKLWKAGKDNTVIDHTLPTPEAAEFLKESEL
# Procedure: IC50 values for KDM2–6 were measured using an AlphaScreen assay as described. The appropriate KDM (5 μl) was pre-incubated with an inhibitor (0.1 μl in DMSO) or DMSO for 15 min before the addition of 5 μl mixture of biotinylated peptide substrates, 2OG, ferrous ammonium sulfate (1–10 μM final) and ascorbate (100 μM final) to initiate the demethylation reaction. The reaction was quenched with 5 μl of 30 mM EDTA at predetermined reaction times for each enzyme (initial rate). Demethylated product was detected by addition of 5 μl of AlphaScreen donor and acceptor beads (AlphaScreen General IgG Detection Kit, 0.02 mg ml^−1 final each) pre-incubated with antibody. The plates were read after 1 h incubation in a BMG Labtech Pherastar FS plate reader. Data were normalized to a no enzyme control and IC50 values were calculated using nonlinear regression curve fits using GraphPad Prism. Assay buffer (50 mM HEPES pH 7.5, BSA (0.1% w/v) and Tween-20 (0.01% v/v)) was used throughout, except for dilution of stock ferrous ammonium sulfate solutions where water was used. The enzyme, substrate and antibody concentrations used are described in Supplementary Table 3. A fluorescence-based LSD1 inhibitor screening assay kit (Cayman, 700120) was used for KDM1/LSD1 assay. Assays for prolyl hydroxylase domain 2 and factor inhibiting HIF using matrix-assisted laser desorption/ionization–time of flight MS were performed as previously described. Prism 5.0 (GraphPad) was used to generate and to fit dose–response curves. IC50 values were determined by plotting percentage inhibition versus compound concentration relative to positive (vehicle) and negative (no enzyme) controls, using normalized dose–response (variable slope) fit. The reported values are the mean of multiple experiments (n≥3). The formaldehyde dehydrogenase coupled KDM assay was used to determine the mode of inhibition, using 0.5 μM His-KDM4A1–359. Prism 5.0 (GraphPad) was used to fit in mix-mode inhibition, to determine the kinetic parameters. Binding constants for CPs and H3(1–15)K9me3 were measured using biolayer interferometry (OctetRed 384, ForteBio) in buffer (50 mM HEPES (pH 7.5), 150 mM NaCl, 10 μM ammonium iron(II) sulphate). His-KDM4A1–359-Bio (70 nM) was immobilized onto super streptavidin biosensor and subjected to different peptide concentrations in buffer. Data analysis was performed using ForteBio Data Aalysis (v6.4).
# Construct Expression [E] / nM [2OG] / µM [Fe(II)] / µM Peptide / nM Peptide sequence Antibody Source […]
# Supplementary Table 3. AlphaScreen assay parameters for 2OG oxygenases used for this study. The table was dapted from 10. Assays were performed at 2OG concentration near the 2OG Km values determined experimentally.11 All enzymes were expressed and purified as described.10-12
# [1] = test system: H3K9me3/H3K36me3 in HeLa cells; assay: Immunofluorescence of global histone methylation, 72 h dosing; assay type: cell-based; conditions: 72 h treatment
# From the text: Supplementary Figure 12. Immunofluorescence analysis of global histone methylation levels after 72hr dosing of cyclic peptides in HeLa cells. (a)-(c) Immunofluorescence analysis of HeLa cells dosed with cyclic peptides for 72 hrs. Maximum intensity projected images of 3D confocal z-stacks showing nuclei stained with […]
# DMSO and CP2 treated cells. Bar represents 50µm. Global H3K9me3 (d) and associated nuclei count for the […]
# staining, (h) global H3K4me3 and (i) global H3K27me3 staining. An increase in fluorescence intensity, […]
# over certain concentration ranges. Average +/- s.e.m (n > 100 cells) are shown except at concentrations of […]
# A generic 2OG oxygenase inhibitor 5-carboxy-8-
# Immunofluorescence (IF) assay […]
# with 0.5% FBS and 1% Pen-Strep. […]
# grade plate (Becton Dickinson) and left overnight to adhere. Cells were dosed with cyclic […]
# After 30min blocking (3% FBS in […]
# three times after each incubation. […]
# Image acquisition and analysis […]
# image immunostained cells in a 96-well plate configuration. For each well, the system […]
# The average intensity for each […]
# analysed using GraphPad Prism 5. […]
sequence,measurement,setting,value
DYVYNTRSGWRWYTC [CP2],CETSA stabilization / Tm shift of FLAG-KDM4E,FLAG-KDM4E,No significant changes in the Tm shift; also recorded: not stabilized
same,Intra-subfamily selectivity KDM4A-C over KDM4D-E,KDM4A,> 100 fold
same,"Selectivity by IC50 for KDM4 over other JmjC-demethylase families, PHD2, FIH and KDM1A",KDM4A,> 160 fold
same,Change in global H3K9me3/H3K36me3 levels,[1],did not have any apparent effect; also recorded: no discernible changes
